# Measured values taken from patent US11339169B2, “P2X3 and/or P2X2/3 compounds and methods” (Asana BioSciences, LLC, priority 2016, dated 2022).
# How the values were obtained:
# hP2X3 = target: T1, hP2X3 (Homo sapiens, UniProt P56373); experiment: FLIPR intracellular calcium assay, hP2X3; type: cell-based; conditions: human P2X3-HEK cells, agonist at EC75
# T1 construct: host or cells: HEK (hP2X3-HEK)
# T1 sequence (P56373 1-397): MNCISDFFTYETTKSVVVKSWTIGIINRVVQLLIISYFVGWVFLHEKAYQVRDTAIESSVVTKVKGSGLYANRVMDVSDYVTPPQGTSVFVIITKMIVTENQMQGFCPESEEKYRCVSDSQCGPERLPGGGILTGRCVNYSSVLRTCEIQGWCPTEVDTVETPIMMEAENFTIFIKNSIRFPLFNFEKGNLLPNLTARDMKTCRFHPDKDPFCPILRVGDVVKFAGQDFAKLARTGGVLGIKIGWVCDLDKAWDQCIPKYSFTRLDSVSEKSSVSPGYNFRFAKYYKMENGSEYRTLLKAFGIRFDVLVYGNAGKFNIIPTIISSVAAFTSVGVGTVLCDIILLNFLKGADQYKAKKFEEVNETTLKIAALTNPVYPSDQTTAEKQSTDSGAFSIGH
# Text: (§1) The FLIPR® assay utilizes cells which express human or rat P2X3 or P2X2/3 receptors. Recombinant cells expressing hP2X3 (Cat #6188) and hP2X2/3 (Cat #6179) were procured from Chantest Corp. Rat P2X2 (NCBI Accession No: U14414) was amplified by PCR from PC12 cDNA (a rat adrenal medulla cell line). The PCR product obtained containing the protein coding sequence of rat P2X2 was cloned into EcoRV-digested and dephosphorylated vector plRES-puro3 within the multiple cloning site (MCS). See, FIG. 1A.
# (§2) (i) Intracellular Calcium Assay Protocol for Screening Compounds
# (§3) Cryo-vial containing 6×10^6 cells (human P2X3-HEK/human P2X2/3-TRex293/rat P2X2/3-TRex293/rat P2X3 TRex-CHO) was thawed in a 37° C. water bath. Cells were suspended in 20 mL of respective cell plating media (See annexure for composition) in a 50 mL centrifuge tube. The cell viability was checked with the help of Trypan Blue dye. Upon washing, cells were plated in a black 384-well clear bottomed, sterile poly-D-lysine coated plate such that, each well contained 10,000 cells (15,000/well for hP2X3) in 30 μL cell plating media. The plate was incubated in a 5% CO2 incubator at 37° C. for 24 h.
# (§4) The next day, prior to the assay, the cell plating media was removed from each well by decanting and gentle tapping. Thirty μL of FLIPR Calcium 4 dye solution was added to each well. The plate was incubated at 37° C. for 45 min (60 min for hP2X3). The plate was next equilibrated at room temperature for 15 minutes before placing it in a 384 well FLIPR for the assay.
# (§5) Compounds were dissolved in DMSO and serially diluted following 11 point half log (3.16 fold) dilution with a starting concentration of 2 mM. Dilutions were mixed with assay buffer just before performing the assay.
# (§6) Compounds were added to the respective wells of the assay-ready cell plate with the help of the FLIPR and fluorescence readings were captured for 5 min to observe any possible agonistic property of the compounds. The plate was then incubated at room temperature for 15 min. The cells were stimulated with respective agonist EC75 concentration and the fluorescence readings were captured for another 5 min by FLIPR. The difference in fluorescence readings in presence of the compounds were compared with that of the control wells (wells having no compound) to calculate the inhibitory potency of the compounds. The IC50 values of the compounds were determined using the Graph pad Prism software.
# (§7) (ii) Cell Plating Media for hP2X3-HEK and hP2X2/3-TRex293 Cells • DMEM/F12 (1:1) HAM media (Invitrogen; Cat #11039) • 1×NEAA (Invitrogen; Cat #11140) • 25 mM HEPES (Invitrogen; Cat #15630) • 1 mM sodium pyruvate (Invitrogen; Cat #11360) • 10% tetracycline negative FBS (PAA; Cat #A15-209) • 1 μg/mL doxycycline (Clontech; Cat #63131) [for hP2X2/3-TRex293 cells only]
# (§8) (v) Assay Buffer Composition • HBSS (Invitrogen Cat #14025) • 20 mM HEPES (Invitrogen Cat #15630) • 0.01% F127 (Sigma Cat #P2443) • 1.8 mM CaCl2 (Sigma Cat #C5080) • pH adjusted to 7.4
# (§9) (vi) Dye Solution Composition • 1× FLIPR Calcium 4 dye in assay buffer (Molecular devices Cat #R8141) • 1.8 mM Probenecid (Sigma Cat #P8761) • pH adjusted to 7.4
# hP2X2/3 = target: T2, hP2X2/3 (Homo sapiens, UniProt P56373+Q9UBL9); experiment: FLIPR intracellular calcium assay, hP2X2/3; type: cell-based; conditions: human P2X2/3-TRex293 cells, agonist at EC75
# T2 construct: host or cells: TRex293 (hP2X2/3-TRex293), doxycycline-induced
# T2 sequence (P56373 1-397): T1 sequence (P56373 1-397)
# T2 sequence (Q9UBL9 1-471): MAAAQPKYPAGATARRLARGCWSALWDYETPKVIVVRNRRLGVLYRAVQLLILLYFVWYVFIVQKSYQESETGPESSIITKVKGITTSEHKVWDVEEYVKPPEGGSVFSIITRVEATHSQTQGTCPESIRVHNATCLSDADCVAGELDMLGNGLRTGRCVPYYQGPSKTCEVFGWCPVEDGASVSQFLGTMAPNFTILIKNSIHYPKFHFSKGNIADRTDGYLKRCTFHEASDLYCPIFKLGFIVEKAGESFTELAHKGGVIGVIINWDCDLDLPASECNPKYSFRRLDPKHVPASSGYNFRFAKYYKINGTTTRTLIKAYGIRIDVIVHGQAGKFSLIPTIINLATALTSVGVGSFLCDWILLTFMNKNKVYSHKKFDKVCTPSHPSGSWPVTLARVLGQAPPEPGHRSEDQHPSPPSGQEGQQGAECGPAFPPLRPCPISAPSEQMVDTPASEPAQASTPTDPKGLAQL
# Text: as §1, §2, §3, §4, §5, §6, §7, §8, §9
Compound,IC50 (hP2X3) [nM],IC50 (hP2X2/3) [nM]
"4-{1-sec-Butyl-7-[((R)-cyclopropyl-quinolin-3-yl-methyl)-amino]-1H-pyrazolo[4,3-d]pyrimidin-5-yl}-piperazine-1-sulfonic Acid Amide [Example 109]",100 to 1000,
"CC(=O)N1CCN(c2nc(N[C@H](C)c3cnc4ccccc4c3)c3nn(C(C)C)cc3n2)CC1 [Example 1, 1-{4-[2-Isopropyl-7-((R)-1-quinolin-3-yl-ethylamino)-2H-pyrazolo[4,3-d]pyrimidin-5-yl]-piperazin-1-yl}-ethanone]",1 to 100,> 10000
CC(=O)N1CCN(c2nc(NC(C)c3cnc4ccccc4c3)c3nn(C(C)C)cc3n2)CC1 (centres unmarked) [Example 2],100 to 1000,
CC(=O)N1CCN(c2nc(NC(C)(C)Cc3ccc(Cl)cc3)c3nn(C(C)C)cc3n2)CC1 [Example 3],100 to 1000,1000 to 10000
CCC(C)n1cc2nc(N3CCN(C(C)=O)CC3)nc(NC(C)c3cnc4ccccc4c3)c2n1 (centres unmarked) [Example 4],1 to 100,> 10000
CCC(C)n1cc2nc(N3CCN(C(C)=O)CC3)nc(N[C@H](C)c3cnc4ccccc4c3)c2n1 (some centres unmarked) [Example 5],1 to 100,> 10000
CCC(C)n1cc2nc(N3CCN(C(C)=O)CC3)nc(NC(C)(C)Cc3ccc(Cl)cc3)c2n1 (centres unmarked) [Example 6],100 to 1000,1000 to 10000
CC(=O)N1CCN(c2nc(N[C@H](C)c3cnc4ccccc4c3)c3nn(CC(C)C)cc3n2)CC1 [Example 7],100 to 1000,> 10000
CCC(CC)n1cc2nc(N3CCN(C(C)=O)CC3)nc(N[C@H](C)c3cnc4ccccc4c3)c2n1 [Example 8],1 to 100,
"CC(=O)N1CCN(c2nc(N[C@H](C)c3cnc4ccccc4c3)c3nn(-c4ccccc4)cc3n2)CC1 [Example 9, 1-{4-[2-Phenyl-7-((R)-1-quinolin-3-yl-ethylamino)-2H-pyrazolo[4,3-d]pyrimidin-5-yl]-piperazin-1-yl} ethanone]",100 to 1000,
CC(=O)N1CCN(c2nc(NC(C)c3cnc4ccccc4c3)c3c(cnn3C(C)C)n2)CC1 (centres unmarked) [Example 11],1 to 100,1000 to 10000
CC(=O)N1CCN(c2nc(N[C@H](C)c3cnc4ccccc4c3)c3c(cnn3C(C)C)n2)CC1 [Example 12],1 to 100,1000 to 10000
CC(=O)N1CCN(c2nc(NC(C)(C)Cc3ccc(Cl)cc3)c3c(cnn3C(C)C)n2)CC1 [Example 13],1 to 100,1000 to 10000
CC(=O)N1CCN(c2nc(NCc3cnc4ccccc4c3)c3c(cnn3C(C)C)n2)CC1 [Example 14],100 to 1000,> 10000
CC(C)n1ncc2nc(N3CCN(C)C(=O)C3)nc(N[C@H](C)c3cnc4ccccc4c3)c21 [Example 15],1 to 100,1000 to 10000
CC(=O)N1CCN(c2nc(N[C@H](C)c3cnc4ccccc4c3)c3c(cnn3CC(C)C)n2)CC1 [Example 16],1 to 100,1000 to 10000
CC(=O)N1CCN(c2nc(N[C@@H](C)c3cnc4ccccc4c3)c3c(cnn3C(C)C)n2)CC1 [Example 17],100 to 1000,
CCC(C)n1ncc2nc(N3CCN(C(C)=O)CC3)nc(N[C@@H](C)c3cnc4ccccc4c3)c21 (some centres unmarked) [Example 18],100 to 1000,1000 to 10000
CCC(C)n1ncc2nc(N3CCN(C)C(=O)C3)nc(N[C@H](C)c3cnc4ccccc4c3)c21 (some centres unmarked) [Example 20],100 to 1000,
CC[C@@H](C)n1ncc2nc(N3CCN(C(C)=O)CC3)nc(N[C@H](C)c3cnc4ccccc4c3)c21 [Example 21],1 to 100,1000 to 10000
CCC(CC)n1ncc2nc(N3CCN(C(C)=O)CC3)nc(N[C@H](C)c3cnc4ccccc4c3)c21 [Example 22],1 to 100,1 to 100
CC(=O)N1CCN(c2nc(N[C@H](C)c3cnc4ccccc4c3)c3c(cnn3CC3CCOCC3)n2)CC1 [Example 26],100 to 1000,
CC(=O)N1CCN(c2nc(N[C@H](C)c3cnc4ccccc4c3)c3c(cnn3C3CCOCC3)n2)CC1 [Example 27],1 to 100,
CCCCCCn1ncc2nc(N3CCN(C(C)=O)CC3)nc(N[C@H](C)c3cnc4ccccc4c3)c21 [Example 28],100 to 1000,
CCC(CC)n1ncc2nc(N3CCN(C(C)=O)CC3)nc(N[C@@H](CC)c3cnc4ccccc4c3)c21 [Example 36],100 to 1000,

# Further lines, results first:
IC50 (hP2X3) [nM],IC50 (hP2X2/3) [nM],Compound
100 to 1000,,"CCC(C)n1ncc2nc(-n3cnnn3)nc(N[C@@H](c3cnc4ccccc4c3)C3CC3)c21 (single isomer, unassigned) [Example 78]"
100 to 1000,1000 to 10000,"CCC(C)n1ncc2nc(-n3cnnn3)nc(N[C@@H](c3cnc4ccccc4c3)C3CC3)c21 (single isomer, unassigned) [Example 79]"
1 to 100,,CCC(=O)N1CCN(c2nc(N[C@H](C)c3cnc4ccccc4c3)c3c(cnn3C(C)C)n2)CC1 [Example 37]
100 to 1000,,CC(C)n1ncc2nc(N3CCNC(=O)C3)nc(N[C@H](C)c3cnc4ccccc4c3)c21 [Example 41]
100 to 1000,,CCn1ncc2nc(N3CCN(C(C)=O)CC3)nc(N[C@H](C)c3cnc4ccccc4c3)c21 [Example 50]
100 to 1000,,CCC(C)n1ncc2nc(N3CCN(C(C)=O)CC3)nc(NC(C)c3ccc(-c4ccccn4)cc3)c21 (centres unmarked) [Example 53]
100 to 1000,,CCC(CC)n1ncc2nc(N3CCN(C(C)=O)CC3)nc(N[C@@H](C)c3cnc4ccc(F)cc4c3)c21 [Example 54]
100 to 1000,,CCC(CC)n1ncc2nc(N3CCN(C(C)=O)CC3)nc(NC(c3ccc(OCC4CC4)nc3)C3CC3)c21 (centres unmarked) [Example 63]
100 to 1000,,CC[C@H](C)n1ncc2nc(N3CCN(C(N)=O)CC3)nc(NC(c3ccc4nccn4c3)C3CC3)c21 (some centres unmarked) [Example 67]
100 to 1000,,CC[C@H](C)n1ncc2nc(N3CCN(C(N)=O)CC3)nc(NC(C)c3n[nH]c4ccccc34)c21 (some centres unmarked) [Example 71]
100 to 1000,,CC[C@H](C)n1ncc2nc(N3CCN(C(N)=O)CC3)nc(NC(C)c3cc4ccccn4n3)c21 (some centres unmarked) [Example 73]
100 to 1000,,CC(=O)N1CCN(c2nc(NC(C)c3cnc4ccccc4c3)c3nn(C(C)C)c(C(N)=O)c3n2)CC1 (centres unmarked) [Example 95]
1 to 100,,CC(=O)N1CCN(c2nc(NC(C)(C)Cc3ccc(Cl)cc3)c3nn(C(C)C)c(Br)c3n2)CC1 [Example 97]
1 to 100,,CC(=O)N1CCN(c2nc(N[C@H](C)c3cnc4ccccc4c3)c3nn(C(C)C)c(C4CC4)c3n2)CC1 [Example 107]
100 to 1000,,CCC(C)n1ncc2nc(-c3cnn(CC(N)=O)c3)nc(N[C@@H](c3cnc4ccccc4c3)C3CC3)c21 (some centres unmarked) [Example 120]
